The values below come from patent US8952157B2, “Apoptosis-inducing agents for the treatment of cancer and immune and autoimmune diseases” (AbbVie Inc., priority 2008, dated 2015).

GST-Bcl-2, sequence (P10415 whole entry): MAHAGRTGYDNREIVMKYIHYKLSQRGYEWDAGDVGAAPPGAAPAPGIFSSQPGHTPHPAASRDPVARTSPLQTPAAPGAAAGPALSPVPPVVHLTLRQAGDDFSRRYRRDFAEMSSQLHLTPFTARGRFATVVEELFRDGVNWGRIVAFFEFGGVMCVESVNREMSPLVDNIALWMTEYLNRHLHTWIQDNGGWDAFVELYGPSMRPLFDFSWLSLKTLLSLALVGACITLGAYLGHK

This test has as its target GST-Bcl-2 (Homo sapiens (Human), UniProt P10415). The experiment in a line: Time Resolved-Fluorescence Resonance Energy Transfer (TR-FRET) Bcl-2 binding assay. As to conditions: GST-Bcl-2 1 nM, F-Bak peptide probe 100 nM, Tb-anti-GST antibody 1 nM; Ki by Wang's equation. In outline:
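Ki values derived from TR-FRET displacement of F-Bak peptide from GST-Bcl-2, detected with Tb-labelled anti-GST antibody (ex 340, em 520/495 nm). Compound dilution series started at 50 μM (2× starting concentration); room-temperature incubation 3 hours.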
In general terms: Time-resolved FRET reads energy transfer from a long-lived donor to a nearby acceptor.
Turning to `CC1(C)CC(c2ccc(Cl)cc2)=C(CN2CCN(c3ccc(C(=O)NS(=O)(=O)c4ccc(NCC5CCOCC5)c([N+](=O)[O-])c4)c(Oc4cc5cc[nH]c5cc4Cl)c3)CC2)CO1` [Example 275, 2-[(6-chloro-1H-indol-5-yl)oxy]-4-(4-{[4-(4-chlorophenyl)-6,6-dimethyl-5,6-dihydro-2H-pyran-3-yl]methyl}piperazin-1-yl)-N-({3-nitro-4-[(tetrahydro-2H-pyran-4-ylmethyl)amino]phenyl}sulfonyl)benzamide], affinity was put at a Ki of 0.081 nM.
To `CC1(C)CCC(CN2CCN(c3ccc(C(=O)NS(=O)(=O)c4ccc(NCC5CCOCC5)c([N+](=O)[O-])c4)c(Oc4cc5cc[nH]c5cc4Cl)c3)CC2)=C(c2ccc(Cl)cc2)C1` [Example 276, 2-[(6-chloro-1H-indol-5-yl)oxy]-4-(4-{[2-(4-chlorophenyl)-4,4-dimethylcyclohex-1-en-1-yl]methyl}piperazin-1-yl)-N-({3-nitro-4-[(tetrahydro-2H-pyran-4-ylmethyl)amino]phenyl}sulfonyl)benzamide] belongs 0.199 nM; to `CC1(C)CC(c2ccc(Cl)cc2)=C(CN2CCN(c3ccc(C(=O)NS(=O)(=O)c4ccc(NCC5CCOCC5)c([N+](=O)[O-])c4)c(Oc4cc5cc[nH]c5cc4F)c3)CC2)CO1` [Example 277, 4-(4-{[4-(4-chlorophenyl)-6,6-dimethyl-5,6-dihydro-2H-pyran-3-yl]methyl}piperazin-1-yl)-2-[(6-fluoro-1H-indol-5-yl)oxy]-N-({3-nitro-4-[(tetrahydro-2H-pyran-4-ylmethyl)amino]phenyl}sulfonyl)benzamide], 0.017 nM.
To `CC1(C)CCC(CN2CCN(c3ccc(C(=O)NS(=O)(=O)c4ccc(NCC5CCOCC5)c([N+](=O)[O-])c4)c(Oc4cncc(NC(=O)OC(C)(C)C)c4)c3)CC2)=C(c2ccc(Cl)cc2)C1` [Example 278, tert-butyl 5-(5-(4-{[2-(4-chlorophenyl)-4,4-dimethylcyclohex-1-en-1-yl]methyl}piperazin-1-yl)-2-{[({3-nitro-4-[(tetrahydro-2H-pyran-4-ylmethyl)amino]phenyl}sulfonyl)amino]carbonyl}phenoxy)pyridin-3-ylcarbamate] belongs 40 nM; to `CC1(C)CCC(CN2CCN(c3ccc(C(=O)NS(=O)(=O)c4ccc(NCC5CCOCC5)c([N+](=O)[O-])c4)c(Oc4cncc(N)c4)c3)CC2)=C(c2ccc(Cl)cc2)C1` [Example 279, 2-[(5-aminopyridin-3-yl)oxy]-4-(4-{[2-(4-chlorophenyl)-4,4-dimethylcyclohex-1-en-1-yl]methyl}piperazin-1-yl)-N-({3-nitro-4-[(tetrahydro-2H-pyran-4-ylmethyl)amino]phenyl}sulfonyl)benzamide], 1.7 nM; to `CC1(C)CCC(CN2CCN(c3ccc(C(=O)NS(=O)(=O)c4ccc(NCC5CCOCC5)c([N+](=O)[O-])c4)c(Oc4ccnc(NC(=O)OC(C)(C)C)c4)c3)CC2)=C(c2ccc(Cl)cc2)C1` [Example 280, tert-butyl 4-(5-(4-{[2-(4-chlorophenyl)-4,4-dimethylcyclohex-1-en-1-yl]methyl}piperazin-1-yl)-2-{[({3-nitro-4-[(tetrahydro-2H-pyran-4-ylmethyl)amino]phenyl}sulfonyl)amino]carbonyl}phenoxy)pyridin-2-ylcarbamate], 7.55 nM.
The figure for `CC1(C)CCC(CN2CCN(c3ccc(C(=O)NS(=O)(=O)c4ccc(NC5CCN(C6CCOCC6)CC5)c([N+](=O)[O-])c4)c(Oc4ccc5[nH]cc(Cl)c5c4)c3)CC2)=C(c2ccc(Cl)cc2)C1` [Example 281, 2-[(3-chloro-1H-indol-5-yl)oxy]-4-(4-{[2-(4-chlorophenyl)-4,4-dimethylcyclohex-1-en-1-yl]methyl}piperazin-1-yl)-N-({3-nitro-4-[(1-tetrahydro-2H-pyran-4-ylpiperidin-4-yl)amino]phenyl}sulfonyl)benzamide] is 0.111 nM.
